# In US11465987B2, “Compounds for treatment of cancer” (ONCTERNAL THERAPEUTICS, INC., priority 2012, dated 2022):
# Where two headings read alike, the source gives them in different places.
# How the values were obtained:
# [1] = tested on: B16-F1 mouse melanoma cell line; assay: Cytotoxicity (SRB) assay, B16-F1; format: cell-based
# [2] = tested on: A375 human melanoma cell line; assay: Cytotoxicity (SRB) assay, A375; format: cell-based
# [3] = tested on: WM-164 human melanoma cell line; assay: Cytotoxicity (SRB) assay, WM-164; format: cell-based
# [4] = tested on: DU 145 human prostate cancer cell line; assay: Cytotoxicity (SRB) assay, DU 145; format: cell-based
# Excerpt: (§1) Cells were stained with SRB solution.
# [5] = tested on: PC-3 human prostate cancer cell line; assay: cells
# Excerpt: as §1
# [6] = tested on: LNCaP human prostate cancer cell line; assay: Cytotoxicity (SRB) assay, LNCaP; format: cell-based
# Excerpt: as §1
# [7] = tested on: PPC-1 human prostate cancer cell line; assay: Cytotoxicity (SRB) assay, PPC-1; format: cell-based
# Excerpt: as §1
# [8] = tested on: melanoma and prostate cancer cell lines; assay: Antiproliferative activity summarised over the cell line panel (range or average); format: cell-based
# [9] = tested on: PC-3 xenograft; assay: In vivo PC-3 prostate tumor xenograft; details: PC-3, 50 mg/kg i.p. daily; control 680 mm^3
# [10] = Table 12, read-out: IC50 ± SEM, B16-F1 (converted)
# [11] = Table 12, read-out: IC50 ± SEM, A375 (converted)
# [12] = Table 12, read-out: IC50 ± SEM, WM164 (converted)
# [13] = Mus musculus, B16-F1, Table 11, read-out: IC50, B16-F1
# [14] = Homo sapiens, A-375, Table 11, read-out: IC50, A375
# [15] = Homo sapiens, WM164, Table 11, read-out: IC50, WM164
# [16] = Homo sapiens, DU-145, Table 11, read-out: IC50, Du 145
# [17] = Homo sapiens, LNCaP, Table 11, read-out: IC50, LNCaP
# [18] = Homo sapiens, PPC-1, Table 11, read-out: IC50, PPC-1
# [19] = Tables 11-13, read-out: IC50 (average of all seven cell lines)
# [20] = Mus musculus, B16-F1, Table 12, read-out: IC50 ± SEM, B16-F1 (converted)
# [21] = Homo sapiens, A-375, Table 12, read-out: IC50 ± SEM, A375 (converted)
# [22] = Homo sapiens, WM164, Table 12, read-out: IC50 ± SEM, WM164 (converted)
# [23] = Homo sapiens, read-out: IC50 ± SEM, PC-3, Table 12
compound,measurement,setting,value
O=C(c1cc(O)c(O)c(O)c1)c1c[nH]c(-c2ccc(O)c(O)c2)n1 [13ha],IC50,[1]; [10],> 10 µM
same,IC50,[2]; [11],> 10 µM
same,IC50,[3]; [12],> 10 µM
"COc1cc(C(=O)n2ccnc2-c2ccccc2)cc(OC)c1OC [12aaa, (2-phenyl-1H-imidazol-1-yl)(3,4,5-trimethoxyphenyl)methanone]",IC50,[1]; [13],> 10 µM
same,IC50,[2]; [14],> 10 µM
same,IC50,[3]; [15],> 10 µM
same,IC50,[4]; [16],> 10 µM
same,IC50,"[5]; read-out: IC50, PC-3, Table 11",> 10 µM
same,IC50,[6]; [17],> 10 µM
same,IC50,[7]; [18],> 10 µM
same,IC50,[8]; [19],> 10 µM
"O=S(=O)(c1ccccc1)n1ccnc1-c1ccc(OCc2ccccc2)cc1 [10j, 2-(4-(benzyloxy)phenyl)-1-(phenylsulfonyl)-1H-imidazole]",IC50,[1]; [13],> 10 µM
same,IC50,[2]; [14],> 10 µM
same,IC50,[3]; [15],> 10 µM
same,IC50,[4]; [16],> 10 µM
same,IC50,"[5]; read-out: IC50, PC-3, Table 11",> 10 µM
same,IC50,[6]; [17],> 10 µM
same,IC50,[7]; [18],> 10 µM
same,IC50,[8]; [19],> 10 µM
"O=C(c1cc(O)c(O)c(O)c1)c1c[nH]c(-c2ccc(Cl)cc2)n1 [13fa, (2-(4-chlorophenyl)-1H-imidazol-4-yl)(3,4,5-trihydroxyphenyl)methanone]",IC50,[1]; [20],1.81 µM
same,IC50,[2]; [21],3.9 µM
same,IC50,[3]; [22],2.1 µM
same,IC50,[5]; [23],10 µM
"COc1ccc(-c2nc(C(=O)c3ccc(F)cc3)c[nH]2)cc1OC [12hb, (2-(3,4-dimethoxyphenyl)-1H-imidazol-4-yl)(4-fluorophenyl)methanone]",IC50,[1]; [20],4.21 µM
same,IC50,[3]; [22],1.4 µM
same,IC50,[5]; [23],10 µM
same,IC50,[8]; [19],1 to 50 µM
"O=C(c1ccc2[nH]ccc2c1)c1csc(-c2cc3ccccc3[nH]2)n1 [compound 21, (2-(1H-indol-2-yl)thiazol-4-yl)(1H-indol-5-yl)methanone]",tumor volume at day 21,[9],331 mm^3
"COc1cc(C(=O)c2c[nH]c(-c3ccc(Cl)cc3)n2)cc(OC)c1OC [12fa, (2-(4-chlorophenyl)-1H-imidazol-4-yl)(3,4,5-trimethoxyphenyl)methanone]",IC50,[1]; [20],0.168 µM
same,IC50,[2]; [21],0.043 µM
same,IC50,[3]; [22],0.026 µM
same,IC50,[5]; [23],0.035 µM
same,IC50,[8]; read-out: IC50 (range over tested cell lines),0.0079 to 0.11 µM
"COc1cc(C(=O)c2c[nH]c(-c3ccc(OCc4ccccc4)cc3)n2)cc(OC)c1OC [12ja, (2-(4-(benzyloxy)phenyl)-1H-imidazol-4-yl)(3,4,5-trimethoxyphenyl)methanone]",IC50,[1]; [20],10 µM
same,IC50,[2]; [21],5.2 µM
same,IC50,[3]; [22],5.5 µM
same,IC50,[5]; [23],10 µM
"COc1ccc(C(=O)n2ccnc2-c2ccccc2)cc1 [12aba, (4-methoxyphenyl)(2-phenyl-1H-imidazol-1-yl)methanone]",IC50,[1]; [13],> 10 µM
same,IC50,[2]; [14],> 10 µM
same,IC50,[3]; [15],> 10 µM
same,IC50,[4]; [16],> 10 µM
same,IC50,"[5]; read-out: IC50, PC-3, Table 11",> 10 µM
same,IC50,[6]; [17],> 10 µM
same,IC50,[7]; [18],> 10 µM
same,IC50,[8]; [19],> 10 µM
COc1ccc(C(=O)n2ccnc2-c2ccc(F)cc2)cc1 [compound 24],IC50,"[3]; Table 6A, read-out: IC50 ± SEM, WM164 (converted)",> 10 µM
same,IC50,"[6]; Table 6A, read-out: IC50 ± SEM, LNCaP (converted)",> 10 µM
O=C(c1ccc(F)cc1)c1c[nH]c(-c2ccc(O)cc2)n1 [12kb],IC50,[1]; [10],> 10 µM
same,IC50,[2]; [11],10 µM
same,IC50,[3]; [12],> 10 µM
same,IC50,"[4]; Table 12, read-out: IC50 ± SEM, Du 145",> 10 µM
same,IC50,"[5]; read-out: IC50 ± SEM, PC-3, Table 12",> 10 µM
same,IC50,"[6]; Table 12, read-out: IC50 ± SEM, LNCaP (converted)",10 µM
same,IC50,"[7]; Table 12, read-out: IC50 ± SEM, PPC-1 (converted)",> 10 µM
"COc1cc(C(=O)c2cccc(-c3ccccc3)n2)cc(OC)c1OC [1c, (6-Phenylpyridin-2-yl)(3,4,5-trimethoxyphenyl)methanone]",IC50,"[1]; Mus musculus, B16-F1, SRB assay, mouse melanoma B16-F1, read-out: IC50 B16-F1",0.039 ± 0.012 µM
same,IC50,"[2]; Homo sapiens, A-375, SRB assay, human melanoma A375, read-out: IC50 A375",0.03 ± 0.014 µM
same,IC50,"[4]; Homo sapiens, DU-145, SRB assay, prostate cancer DU 145, read-out: IC50 DU 145",0.033 ± 0.003 µM
same,IC50,"[5]; Homo sapiens, read-out: IC50 PC-3, SRB assay, prostate cancer PC-3",0.032 ± 0.002 µM
same,IC50,"[6]; Homo sapiens, LNCaP, SRB assay, prostate cancer LNCaP, read-out: IC50 LNCaP",0.027 ± 0.002 µM
same,IC50,"[7]; Homo sapiens, PPC-1, SRB assay, prostate cancer PPC-1, read-out: IC50 PPC-1",0.025 ± 0.001 µM
same,IC50,"[8]; range over prostate cancer cell lines, read-out: IC50 range against prostate cancer cells",0.012 to 0.035 µM
